The results in this text go back to patent US20130109682A1, “CYCLIC ETHER COMPOUNDS USEFUL AS KINASE INHIBITORS” (NOVARTIS AG, priority 2010, published 2013).

The EC50 is the concentration needed to bring the measured effect to its halfway point. A word on the IC50: it is the concentration that gives 50% inhibition.

Experiment [1] concerns KMS11 (human myeloma cell line). The experiment in a line: Cell proliferation assay (CellTiter-Glo), KMS11. The conditions noted are these: Homo sapiens, KMS-11; KMS11 cells, cell proliferation; read-out: KMS11-Luc EC50. The format is cell-based. A digest of the protocol:
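EC50 derived from CellTiter-Glo luminescence after 3-day exposure at 37° C. Compound was diluted to 2× in medium and added to an equal volume of cells. KMS11 myeloma cells were plated on assay day at 2000/well in IMDM with 10% FBS and sodium pyruvate.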
In general terms: In ATP-based viability assays light output follows the ATP content of the culture.

The next experiment addresses PIM2 (Homo sapiens, UniProt Q9P1W9). The experiment can be described thus: Pim 2 AlphaScreen assay (high ATP). Format: biochemical. The conditions noted are these: read-out: Pim2 IC50. A digest of the protocol: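 IC50 values rest on detection of phosphorylated Bad peptide: after a ~2 h kinase reaction, an EDTA stop buffer containing anti-phospho Ser/Thr antibody, Protein A and streptavidin AlphaScreen beads was added and read after overnight dark incubation. ATP was high (11-125× Km), with 2.5% DMSO in pH 7.5 Hepes buffer containing MgCl2, BSA, Tween-20 and DTT.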
In general terms: Bead proximity is the source of the signal in Alpha formats.

The target of the next experiment is T1, FLT3D835Y kinase (Homo sapiens, UniProt P36888, D835Y).
T1 sequence (P36888 27-993 D835Y): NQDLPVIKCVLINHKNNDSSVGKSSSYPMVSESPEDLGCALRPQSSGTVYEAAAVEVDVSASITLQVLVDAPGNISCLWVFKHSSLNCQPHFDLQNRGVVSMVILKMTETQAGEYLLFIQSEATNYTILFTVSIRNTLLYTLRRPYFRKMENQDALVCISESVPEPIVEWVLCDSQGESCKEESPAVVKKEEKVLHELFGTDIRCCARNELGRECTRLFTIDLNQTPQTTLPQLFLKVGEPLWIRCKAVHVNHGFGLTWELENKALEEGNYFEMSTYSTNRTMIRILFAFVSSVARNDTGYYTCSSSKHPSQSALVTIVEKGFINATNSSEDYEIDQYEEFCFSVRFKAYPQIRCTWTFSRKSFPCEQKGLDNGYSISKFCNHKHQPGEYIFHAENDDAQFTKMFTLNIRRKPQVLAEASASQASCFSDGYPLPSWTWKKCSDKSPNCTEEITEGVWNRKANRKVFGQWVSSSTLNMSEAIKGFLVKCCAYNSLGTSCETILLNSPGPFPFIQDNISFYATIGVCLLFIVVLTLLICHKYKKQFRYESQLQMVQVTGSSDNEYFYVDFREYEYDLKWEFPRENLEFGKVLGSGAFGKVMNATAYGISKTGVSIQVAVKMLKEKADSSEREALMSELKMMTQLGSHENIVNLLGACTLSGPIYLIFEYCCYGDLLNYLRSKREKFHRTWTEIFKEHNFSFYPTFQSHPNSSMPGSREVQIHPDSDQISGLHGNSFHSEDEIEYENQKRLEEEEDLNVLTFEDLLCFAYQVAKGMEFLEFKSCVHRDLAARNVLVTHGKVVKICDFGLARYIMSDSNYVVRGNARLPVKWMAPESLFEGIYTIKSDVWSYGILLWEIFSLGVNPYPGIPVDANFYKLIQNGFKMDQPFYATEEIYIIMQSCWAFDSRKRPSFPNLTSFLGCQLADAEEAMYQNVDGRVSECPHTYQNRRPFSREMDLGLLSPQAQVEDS
The experiment can be described thus: FLT3D835Y kinase inhibition assay (LanthaScreen TR-FRET). Format: biochemical. The conditions noted are these: read-out: FLT3 IC50. A digest of the protocol: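 TR-FRET with 5.7 nM FLT3D835Y, 50 nM polyEAY substrate, 2 μM ATP (f.c.), 3 mM Mg and 3 mM Mn in 50 mM TRIS-HCl pH 7.4 with DTT, Tween 20 and Na3VO4. Reaction 1 h, stopped with EDTA, then Tb-labeled P-20 antibody for 45 min; single end-point reading.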
A general note: TR-FRET usually uses a lanthanide donor and a delayed reading to cut background.

PIM2, sequence (Q9P1W9 whole entry): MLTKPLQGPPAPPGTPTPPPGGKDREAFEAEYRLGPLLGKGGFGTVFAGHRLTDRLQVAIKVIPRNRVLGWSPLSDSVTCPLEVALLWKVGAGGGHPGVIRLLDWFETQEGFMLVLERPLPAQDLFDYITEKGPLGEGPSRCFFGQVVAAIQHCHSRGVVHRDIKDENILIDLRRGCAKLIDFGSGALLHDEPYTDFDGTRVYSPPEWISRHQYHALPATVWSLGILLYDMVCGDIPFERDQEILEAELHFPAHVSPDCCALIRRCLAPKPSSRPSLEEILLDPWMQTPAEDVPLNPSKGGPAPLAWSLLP

Take `CC(C)[C@H]1C[C@@H](N)C[C@@H](c2ccncc2NC(=O)c2nc(-c3ccccc3)cnc2N)O1` [Example 292, 3-amino-N-(4-((2S,4R,6R)-4-amino-6-isopropyltetrahydro-2H-pyran-2-yl)pyridin-3-yl)-6-phenylpyrazine-2-carboxamide]: in experiment [1], the EC50 stood at 700 nM. The values for the IC50 on PIM2 and at FLT3D835Y kinase were 764 nM and 590 nM, respectively.
As for `CCC[C@H]1O[C@@H](c2ccncc2NC(=O)c2nc(-c3ccccc3)cnc2N)C[C@@H](O)[C@@H]1O` [Example 340, 3-amino-N-(4-((2R,4R,5S,6R)-4,5-dihydroxy-6-propyltetrahydro-2H-pyran-2-yl)pyridin-3-yl)-6-phenylpyrazine-2-carboxamide], the EC50 in experiment [1] turned out to be 990 nM. The IC50 on PIM2 was found to be 3650 nM; on FLT3D835Y kinase, 110 nM.
The matching figures for `Nc1ncc(-c2ccccc2)nc1C(=O)Nc1cnccc1[C@H]1C[C@@H](O)[C@H](O)[C@@H](CO)O1` [Example 341, 3-amino-N-(4-((2R,4R,5S,6R)-4,5-dihydroxy-6-(hydroxymethyl)tetrahydro-2H-pyran-2-yl)pyridin-3-yl)-6-phenylpyrazine-2-carboxamide]: 10000 nM, more than 25000 nM and 120 nM.
For `CC[C@@H]1O[C@H](c2ccncc2NC(=O)c2nc(-c3ccccc3)cnc2N)C[C@H](N)[C@H]1O` [Example 342, 3-amino-N-(4-((2S,4S,5R,6S)-4-amino-6-ethyl-5-hydroxytetrahydro-2H-pyran-2-yl)pyridin-3-yl)-6-phenylpyrazine-2-carboxamide] the same measures were 770 nM, 1370 nM and 12 nM.
As for `CC[C@H]1O[C@@H](c2ccncc2NC(=O)c2nc(-c3ccccc3)cnc2N)C[C@@H](N)[C@@H]1O` [Example 343, 3-amino-N-(4-((2R,4R,5S,6R)-4-amino-6-ethyl-5-hydroxytetrahydro-2H-pyran-2-yl)pyridin-3-yl)-6-phenylpyrazine-2-carboxamide], the EC50 in experiment [1] amounted to 150 nM. The values for the IC50 at PIM2 and on FLT3D835Y kinase were 49.1 nM and 1.8 nM, respectively.
For `C[C@]1(O)[C@H](N)C[C@H](c2ccncc2NC(=O)c2nc(-c3ccccc3)cnc2N)O[C@@H]1C1CC1` [Example 344, 3-amino-N-(4-((2R,4R,5S,6R)-4-amino-6-cyclopropyl-5-hydroxy-5-methyltetrahydro-2H-pyran-2-yl)pyridin-3-yl)-6-phenylpyrazine-2-carboxamide] the same measures were 870 nM, 106 nM and 10 nM.
The matching figures for `CC[C@@H]1O[C@H](c2ccncc2NC(=O)c2nc(-c3ccccc3)cnc2N)C[C@H](N)[C@@]1(C)O` [Example 345, 3-amino-N-(4-((2S,4S,5R,6S)-4-amino-6-ethyl-5-hydroxy-5-methyltetrahydro-2H-pyran-2-yl)pyridin-3-yl)-6-phenylpyrazine-2-carboxamide]: 3170 nM, 7810 nM and 920 nM.
The matching figures for `Nc1ncc(-c2ccccc2)nc1C(=O)Nc1cnccc1[C@H]1C[C@@H](N)[C@H](O)[C@@H](C2CC2)O1` [Example 346, 3-amino-N-(4-((2R,4R,5S,6R)-4-amino-6-cyclopropyl-5-hydroxytetrahydro-2H-pyran-2-yl)pyridin-3-yl)-6-phenylpyrazine-2-carboxamide]: 470 nM, 62.7 nM and 8.5 nM.
For the molecule `C[C@@]1(O)[C@@H](N)C[C@@H](c2ccncc2NC(=O)c2nc(-c3ccccc3)cnc2N)O[C@H]1C1CC1` [Example 347, 3-amino-N-(4-((2S,4S,5R,6S)-4-amino-6-cyclopropyl-5-hydroxy-5-methyltetrahydro-2H-pyran-2-yl)pyridin-3-yl)-6-phenylpyrazine-2-carboxamide], the EC50 in experiment [1] was determined as 2430 nM. The results for the IC50 on PIM2 and on FLT3D835Y kinase were 8020 nM and 770 nM, respectively.
For `CC[C@H]1O[C@@H](c2ccncc2NC(=O)c2nc(-c3ccccc3)cnc2N)C[C@@H](N)[C@]1(C)O` [Example 348, 3-amino-N-(4-((2R,4R,5S,6R)-4-amino-6-ethyl-5-hydroxy-5-methyltetrahydro-2H-pyran-2-yl)pyridin-3-yl)-6-phenylpyrazine-2-carboxamide] the same measures were 1190 nM, 146 nM and 17 nM.
The matching figures for `Nc1ncc(-c2ccccc2)nc1C(=O)Nc1cnccc1[C@@H]1C[C@H](N)[C@@H](O)[C@H](C2CC2)O1` [Example 349, 3-amino-N-(4-((2S,4S,5R,6S)-4-amino-6-cyclopropyl-5-hydroxytetrahydro-2H-pyran-2-yl)pyridin-3-yl)-6-phenylpyrazine-2-carboxamide]: 540 nM, 2740 nM and 250 nM.
For `CC(C)(C)[C@H]1O[C@@H](c2ccncc2NC(=O)c2nc(-c3ccccc3)cnc2N)C[C@@H](N)[C@@H]1O` [Example 354, 3-amino-N-(4-((2R,4R,5S,6R)-4-amino-6-tert-butyl-5-hydroxytetrahydro-2H-pyran-2-yl)pyridin-3-yl)-6-phenylpyrazine-2-carboxamide] the same measures were 140 nM, 9 nM and 3.1 nM.
For the molecule `CC(C)(C)[C@@H]1O[C@H](c2ccncc2NC(=O)c2nc(-c3ccccc3)cnc2N)C[C@H](N)[C@H]1O` [Example 355, 3-amino-N-(4-((2S,4S,5R,6S)-4-amino-6-tert-butyl-5-hydroxytetrahydro-2H-pyran-2-yl)pyridin-3-yl)-6-phenylpyrazine-2-carboxamide], the EC50 in experiment [1] is 210 nM. The IC50 on PIM2 turned out to be 8750 nM; on FLT3D835Y kinase, 2600 nM.
For `CC(C)[C@H]1O[C@@H](c2ccncc2NC(=O)c2nc(-c3ccccc3)cnc2N)C[C@@H](N)[C@@H]1O` [Example 356, 3-amino-N-(4-((2R,4R,5S,6R)-4-amino-5-hydroxy-6-isopropyltetrahydro-2H-pyran-2-yl)pyridin-3-yl)-6-phenylpyrazine-2-carboxamide] the same measures were 180 nM, 28.1 nM and 5.8 nM.
